Test results as given in patent US20060228388A1, “Method for controlling an insect species using a synthetic trail pheromone mimic” (priority 2005, published 2006).

Columns and labels:
[1] = test system: forest tent caterpillar colonies; test: Field colony disruption by blanket spraying trees with pheromone-mimic; assay type: in vivo, Malacosoma disstria; conditions: third experiment; ash trees; 1 ppm spray; within one week
Description: (§1) Three experiments were conducted, all employing the following protocol. Trees in the experimental plot were divided into two groups. Trees in one group were sprayed with a 1 part per million (ppm) pheromone-mimic formulation and trees in another group were sprayed with a control solution identical to the pheromone mimic formulation except that it lacked the pheromone-mimic. Egg masses were attached to each tree and the fate of the colonies determined by observation.
(§2) In the second experiment, ten control colonies of the eastern tent caterpillar on apple trees survived and thrived while all of ten colonies on treated trees were destroyed within one week. […] While the exact fate of caterpillars on the treated trees is unknown, they most likely succumbed to a combination of weather related factors, starvation, predation, and falls from the trees.

[2] = test system: colonies of 3rd-5th instar ETCs; test: Field test: artificial trails intersecting authentic trunk trails of colonies; assay type: in vivo, Malacosoma americanum
Description: (§3) The threshold sensitivity of tent caterpillars to 5β-cholestan-3-one laid out in a narrow line on a paper card was determined to be approximately 10^−11 g/mm. Field tests were conducted by using the compound to form artificial trails that intersected well established, authentic trunk trails of colonies of 3rd-5th instar ETCs. In 19 of 23 replicates of these tests, each involving a different colony, colonies abandoned their authentic trail systems and followed the pathways marked with 5β-cholestan-3-one. […] Other studies indicate that the authentic trail pheromone of the tent caterpillar (Malacosoma spp.) may differ subtly from 5β-cholestan-3-one. Thus, 5β-cholestan-3-one is best considered an analog, or pheromone mimic of the authentic tent caterpillar pheromone.

tent caterpillars = test: Threshold sensitivity to a narrow line of compound on a paper card; assay type: in vivo, Malacosoma spp.; conditions: compound laid out in a narrow line on a paper card
Description: as §3

[3] = test system: eastern tent caterpillar colonies; test: Field colony disruption by blanket spraying trees with pheromone-mimic; assay type: in vivo, Malacosoma americanum
Description: as §1, §2

Structure (SMILES): CC(C)CCC[C@@H](C)[C@H]1CC[C@H]2[C@@H]3CC[C@@H]4CC(=O)CC[C@]4(C)[C@H]3CC[C@]12C [5β-cholestan-3-one]
- colonies on treated trees perished [1]: all of fifteen
- replicates in which colonies abandoned their authentic trail systems and followed the marked pathways ([2]; field, each replicate a different colony of 3rd-5th instar ETCs): 19 of 23
- competitiveness with authentic recruitment trails of the caterpillar ([2]; in vivo): fully competitive
- threshold sensitivity of tent caterpillars (tent caterpillars): approximately 10^−11 g/mm
- fate of the remaining treated colonies ([3]; first experiment, cherry trees, 1 ppm spray, three remaining colonies): eventually died out
- treated colonies completely destroyed ([3]; first experiment, cherry trees, 1 ppm spray, within several days): seven of ten
- colonies on treated trees destroyed ([3]; second experiment, apple trees, 1 ppm spray, within one week): all of ten
- disrupting the communicative system of the ETC ([3]; solution containing 1 ppm): effective
